Experimental data as given in PubChem BioAssay AID330 (DTP/NCI, 2004).
Where “and” joins values, the source holds several entries; their conditions need not be identical. Equal entries are not always repeated. Inconclusive results and toxic doses are left out. How the source made its calls: active means survival T/C of 150% or more; inactive means T/C below 125% in these data.

System: P388 leukemia ip, CD2F1 mice, survival T/C
Test: NCI In Vivo Anticancer Drug Screen. Data for tumor model P388 Leukemia (intraperitoneal) in CD2F1 (CDF1) mice
Conditions: endpoint: median survival time, higher = longer survival
How it was run: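 Mice carrying the transplanted tumor received test compound or vehicle. Survival was recorded in each group, and the value is the treated-group measurement divided by that of the vehicle-treated control group.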

[1] = dose: 50.0 mg/kg/injection, schedule: Q01DX009 (ip), vehicle: saline with Tween-80
[2] = dose: 100.0 mg/kg/injection, schedule: Q01DX009 (ip), vehicle: saline with Tween-80
[3] = dose: 200.0 mg/kg/injection, schedule: Q01DX009 (ip), vehicle: saline with Tween-80
[4] = dose: 50.0 mg/kg/injection, schedule: Q01DX005 (ip), vehicle: saline with Tween-80
[5] = dose: 100.0 mg/kg/injection, schedule: Q01DX005 (ip), vehicle: saline with Tween-80
[6] = dose: 200.0 mg/kg/injection, schedule: Q01DX005 (ip), vehicle: saline with Tween-80
[7] = dose: 12.5 mg/kg/injection, schedule: Q01DX009 (ip), vehicle: saline with Tween-80
[8] = dose: 100.0 mg/kg/injection, schedule: Q01DX009 (ip), vehicle: saline
[9] = dose: 200.0 mg/kg/injection, schedule: Q01DX009 (ip), vehicle: saline
[10] = dose: 50.0 mg/kg/injection, schedule: Q01DX005 (ip), vehicle: Klucel (hydroxypropylcellulose) (HPC)
[11] = dose: 100.0 mg/kg/injection, schedule: Q01DX005 (ip), vehicle: Klucel (hydroxypropylcellulose) (HPC)
[12] = dose: 200.0 mg/kg/injection, schedule: Q01DX005 (ip), vehicle: Klucel (hydroxypropylcellulose) (HPC)
[13] = dose: 100.0 mg/kg/injection, schedule: Q01DX001 (ip), vehicle: saline
[14] = dose: 200.0 mg/kg/injection, schedule: Q01DX001 (ip), vehicle: saline
[15] = dose: 60.0 mg/kg/injection, schedule: Q01DX005 (ip), vehicle: Klucel (hydroxypropylcellulose) (HPC)
[16] = dose: 120.0 mg/kg/injection, schedule: Q01DX005 (ip), vehicle: Klucel (hydroxypropylcellulose) (HPC)
[17] = dose: 240.0 mg/kg/injection, schedule: Q01DX005 (ip), vehicle: Klucel (hydroxypropylcellulose) (HPC)

Measured: T/C

NN1C(=O)CCC1=O
inactive: [1] 94 % of control | [2] 97 % of control | [3] 92 % of control

CCCCN(CCCC)C1/C(=N\O)C2CC1C1CC=CC21 (stereo not given)
inactive: dose: 60.0 mg/kg/injection, schedule: Q01DX005 (ip), vehicle: saline + Tween-80 + alcohol 95 % of control | dose: 120.0 mg/kg/injection, schedule: Q01DX005 (ip), vehicle: saline + Tween-80 + alcohol 94 % of control | dose: 240.0 mg/kg/injection, schedule: Q01DX005 (ip), vehicle: saline + Tween-80 + alcohol 94 % of control

NC(=O)c1[nH]ccc1NCc1ccccc1
inactive: [4] 97 % of control | [5] 88 % of control | [6] 97 % of control

C=C1CCC2C(C)(CO)C(O)CCC2(C)C1CCC1=CCOC1=O (stereo not given)
inactive: dose: 11.0 mg/kg/injection, schedule: Q01DX005 (ip), vehicle: Klucel (hydroxypropylcellulose) (HPC) 110 % of control | dose: 22.0 mg/kg/injection, schedule: Q01DX005 (ip), vehicle: Klucel (hydroxypropylcellulose) (HPC) 99 % of control | dose: 44.0 mg/kg/injection, schedule: Q01DX005 (ip), vehicle: Klucel (hydroxypropylcellulose) (HPC) 99 % of control | dose: 88.0 mg/kg/injection, schedule: Q01DX005 (ip), vehicle: Klucel (hydroxypropylcellulose) (HPC) 97 % of control

CCOC(=O)CC1(O)CCC2C3CC=C4CC(OC5CCCCO5)CCC4(C)C3CCC21C (stereo not given)
inactive: dose: 3.0 mg/kg/injection, schedule: Q01DX009 (ip), vehicle: saline with Tween-80 101 % of control | dose: 6.0 mg/kg/injection, schedule: Q01DX009 (ip), vehicle: saline with Tween-80 99 % of control | dose: 12.0 mg/kg/injection, schedule: Q01DX009 (ip), vehicle: saline with Tween-80 100 % of control | [7] 88 % of control

CCc1c(CC(=O)O)c2cc(C)ccc2n1Cc1ccc(Cl)cc1
inactive: [7] 95 % of control | dose: 25.0 mg/kg/injection, schedule: Q01DX009 (ip), vehicle: saline with Tween-80 104 % of control | dose: 25.0 mg/kg/injection, schedule: Q04DX003 (ip), vehicle: saline with Tween-80 104 % of control and 95 % of control and 91 % of control | [1] 109 % of control | dose: 50.0 mg/kg/injection, schedule: Q04DX003 (ip), vehicle: saline with Tween-80 108 % of control and 91 % of control | dose: 100.0 mg/kg/injection, schedule: Q04DX003 (ip), vehicle: saline with Tween-80 90 % of control and 108 % of control and 92 % of control | dose: 100.0 mg/kg/injection, schedule: Q04DX003 (ip), vehicle: saline 96 % of control | dose: 200.0 mg/kg/injection, schedule: Q04DX003 (ip), vehicle: saline with Tween-80 90 % of control

Nn1cnc2[nH]ncc2c1=O
inactive: dose: 60.0 mg/kg/injection, schedule: Q01DX005 (ip), vehicle: saline 99 % of control | dose: 120.0 mg/kg/injection, schedule: Q01DX005 (ip), vehicle: saline 99 % of control | dose: 240.0 mg/kg/injection, schedule: Q01DX005 (ip), vehicle: saline 105 % of control

COC(=O)CCC#N
inactive: [8] 97 % of control | [9] 109 % of control | dose: 400.0 mg/kg/injection, schedule: Q01DX009 (ip), vehicle: saline 107 % of control

C=CCC(N)C(=O)O (stereo not given)
inactive: dose: 50.0 mg/kg/injection, schedule: Q01DX005 (ip), vehicle: saline 103 % of control | dose: 100.0 mg/kg/injection, schedule: Q01DX005 (ip), vehicle: saline 97 % of control

COC(=O)N(C)SN(C)C(=O)O/N=C(\SC)C(=O)N(C)C
inactive: dose: 1.56 mg/kg/injection, schedule: Q01DX009 (ip), vehicle: saline 101 % of control | dose: 3.12 mg/kg/injection, schedule: Q01DX009 (ip), vehicle: saline 102 % of control

C=C1C(=O)OCC1C(=O)O (stereo not given)
inactive: dose: 8.0 mg/kg/injection, schedule: Q01DX009 (ip), vehicle: saline 121 % of control | dose: 16.0 mg/kg/injection, schedule: Q01DX009 (ip), vehicle: saline 114 % of control | dose: 64.0 mg/kg/injection, schedule: Q01DX009 (ip), vehicle: saline 103 % of control

CC(=O)OCC1OC(OC2C(COC(C)=O)OC(Sc3ccccc3)C(OC(C)=O)C2OC(C)=O)C(OC(C)=O)C(OC(C)=O)C1OC(C)=O (stereo not given)
inactive: [10] 100 % of control | [11] 100 % of control | dose: 100.0 mg/kg/injection, schedule: Q04DX002 (ip), vehicle: Klucel (hydroxypropylcellulose) (HPC) 94 % of control | [12] 109 % of control | dose: 200.0 mg/kg/injection, schedule: Q04DX002 (ip), vehicle: Klucel (hydroxypropylcellulose) (HPC) 91 % of control

ClCc1nnn(Cc2ccccc2)c1CCl
inactive: dose: 50.0 mg/kg/injection, schedule: Q01DX009 (ip), vehicle: saline 102 % of control | [8] 89 % of control | [9] 92 % of control

CCCC(=O)N1CCCCC1CC (stereo not given)
inactive: [13] 100 % of control | [14] 102 % of control

C=C(C)C(=O)OC1CCCC2C(=C)C(=O)OC12 (stereo not given)
inactive: [15] 105 % of control | [16] 100 % of control | [17] 107 % of control

O=C(NN(Cc1ccccc1)S(=O)(=O)c1ccccc1)c1ccccc1
inactive: [4] 101 % of control | [5] 107 % of control | [6] 103 % of control

COc1ccc(S(=O)(=O)N/N=C\c2cccc([N+](=O)[O-])c2O)c(OC)c1OC
inactive: [4] 100 % of control | [5] 102 % of control | [6] 96 % of control

CCOC(=O)CN1CN(CCc2ccccc2)CC(C)(C)C1OCC (stereo not given)
inactive: [1] 104 % of control | [2] 101 % of control | [3] 121 % of control | dose: 400.0 mg/kg/injection, schedule: Q01DX009 (ip), vehicle: saline with Tween-80 112 % of control

N#C/C(=C\Nc1ccccn1)C(=O)c1ccco1
inactive: dose: 60.0 mg/kg/injection, schedule: Q01DX005 (ip), vehicle: saline with Tween-80 91 % of control | dose: 120.0 mg/kg/injection, schedule: Q01DX005 (ip), vehicle: saline with Tween-80 100 % of control

Cc1cc2nc3c(=O)[nH]c(=O)nc-3n(CC(O)C(O)C(O)CO)c2cc1C (stereo not given)
inactive: [1] 99 % of control and 104 % of control | [2] 96 % of control and 98 % of control

CCOC/C=C\C(C)(C)C
inactive: dose: 50.0 mg/kg/injection, schedule: Q01DX001 (ip), vehicle: saline 107 % of control | [13] 107 % of control | [14] 99 % of control

CC(=O)Oc1cc2c(cc1Cc1ccc3c(c1)OCO3)OCO2
inactive: [10] 101 % of control | [11] 95 % of control | [12] 100 % of control

COc1ccc2c(c1)c(=O)c(C(=O)O)cn2CCCOc1ccc([N+](=O)[O-])cc1
inactive: [15] 88 % of control | [16] 93 % of control | [17] 89 % of control

C=C(C)Cn1c(=O)n(CC)c(=O)c2[nH]c(Cl)nc21
inactive: dose: 16.0 mg/kg/injection, schedule: Q01DX009 (ip), vehicle: Klucel (hydroxypropylcellulose) (HPC) 108 % of control | dose: 32.0 mg/kg/injection, schedule: Q01DX009 (ip), vehicle: Klucel (hydroxypropylcellulose) (HPC) 107 % of control | dose: 50.0 mg/kg/injection, schedule: Q01DX009 (ip), vehicle: Klucel (hydroxypropylcellulose) (HPC) 95 % of control | dose: 64.0 mg/kg/injection, schedule: Q01DX009 (ip), vehicle: Klucel (hydroxypropylcellulose) (HPC) 117 % of control | dose: 100.0 mg/kg/injection, schedule: Q01DX009 (ip), vehicle: Klucel (hydroxypropylcellulose) (HPC) 100 % of control | dose: 200.0 mg/kg/injection, schedule: Q01DX009 (ip), vehicle: Klucel (hydroxypropylcellulose) (HPC) 101 % of control
